According to patent US20240199601A1, “QUINONE COMPOUND AND PHARMACEUTICAL USE THEREOF” (NANJING SHUPENG LIFE SCIENCE CO., LTD., priority 2021, published 2024):
“Also recorded” adds a separate entry of the source. Like-named read-outs stand apart in the source and are kept apart here.

What was measured:
humans = settings: cited from earlier work
[1] = cited from earlier work
[2] = beagles; cited from earlier work
[3] = tested on: inflammatory pain model (complete Freund's adjuvant); experiment: Inflammatory pain model (complete Freund's adjuvant), mechanical pain threshold; type: in vivo, SD rats; settings: for duration of the analgesic effect / analgesic effect 1.5 hours after oral administration: single oral dose (SP3101 20 mg/kg); for analgesic effect 1.5 hours after oral administration: mechanical pain threshold vs model group
Description: 4 SD rats with a body weight of 200-250 g were used as a blank control (NC), and normal saline was injected into the soles of the left feet of the rats. Inflammatory pain models of 18 rats were constructed, that is to say, 100 μL of a complete Freund's adjuvant was injected into soles of the left feet of the rats, mechanical pain thresholds of the left feet were detected by an ALMEMO2490 data collector 24 hours later, 2 rats with a pain threshold of greater than 15 were abandoned, and the other 16 rats were randomly divided into 4 groups with 4 rats in each group and then administered with water as a positive control (PC), SP3101 (20 mg/kg), PQQ (20 mg/kg) and ibuprofen (25 mg/kg/day) by gavage, respectively.

acetaldehyde = settings: 11.5 mg/kg body weight i.p. before ethanol by gavage; cited from earlier work
[4] = cited from earlier work; remark: listed apart in the source
AMPK [5] = experiment: AMPK phosphorylation level in a variety of cells; type: cell-based; settings: 100 nM
rats = settings: oral, cited from earlier work
[6] = tested on: chronic constriction injury (CCI) model; settings: CCI model of rats; cited from earlier work
[7] = tested on: antioxidant transcription factor (Nrf2); experiment: Nrf2 expression in RAW264.7 cells (protein hybridization); type: cell-based; settings: different concentrations, 24 hours
Description: (§1) RAW264.7 cells were inoculated into two six-well plates and enabled to grow to a density of about 90%, and SP3101 and SP3102 of different concentrations were added, respectively. 24 hours later, the cells were lysed with a radio immunoprecipitation assay (RIPA) lysis buffer, and the expression of proteins was detected by protein hybridization.
(§2) Phosphorylation of serine at the 127th site of AMPK is used as an activation marker. […] It can be seen that the compounds, represented by the SP3101 and the SP3102, of the present invention are used as an AMPK agonist.

AMPK [8] = experiment: AMPK agonist test in RAW264.7 cells (protein hybridization, p-AMPK); type: cell-based; settings: 0.1 μM, 24 hours
Description: as §1, §2

[9] = tested on: autophagy related protein (LC3B); experiment: LC3B expression in RAW264.7 cells (protein hybridization); type: cell-based; settings: different concentrations, 24 hours
Description: as §1, §2

[10] = human volunteers, 60 mg/day for one month
[11] = 20 mg/kg/day orally for three days, rats

Structure (SMILES): O=C(O)c1cc(C(=O)O)c2c(n1)C(=O)C(=O)c1cc(C(=O)O)[nH]c1-2 [PQQ, 4,5-dihydro-4,5-dioxo-1H-pyrrolo(2,3-f)quinone-2,7,9-tricarboxylic acid]
- safe dose determined by the FDA (rarely adverse events) (humans; healthy adults, body weight about 60 kg, every day): 240 mg
- adverse responses (humans; [10]): no adverse responses
- changes of kidney injury markers (humans; [10]): no changes of kidney injury markers
- excreted by the kidney (through urine) ([1]; 24 hours after the administration): 80%
- absorbed by the small intestines ([1]; after oral administration): about 60%
- bioavailability [2]: about 12%
- analgesic effect 1.5 hours after oral administration on the first day [3, 11]: No analgesic effect
- analgesic effect on day 2/3/4/5/6/7 [3, 11]: obvious analgesic effect
- concentration of acetaldehyde vs control group (acetaldehyde): much lower concentration of acetaldehyde
- concentration of ethanol in the blood and liver vs control group (acetaldehyde): no obvious differences
- solubility in water [4]: slightly soluble in water
- phosphorylation level of the AMPK (AMPK [5]): significantly up-regulate
- Adverse response (rats; female rats, 14 days): Reversible; also recorded: Increased kidney; also recorded: Increased urine
- Median lethal dose (LD50) (rats; female rats, 14 days): 500-1,000 mg/kg/day
- Adverse response (rats; female rats, 91 days, 400 mg/kg/day): None
- Adverse response (rats; male rats, 14 days): None
- Median lethal dose (LD50) (rats; male rats, 14 days): 1,000-2,000 mg/kg/day
- Adverse response (rats; male rats, 91 days, 400 mg/kg/day): None
- analgesic effect [6]: had an analgesic effect

Structure (SMILES): CC(=O)Oc1cc(C(=O)O)c2c(n1)C(=O)C(=O)c1cc[nH]c1-2 [SP3102, 7-acetoxy-4,5-dioxo-4,5-dihydro-1H-pyrrolo[2,3-f]quinone-9-carboxylic acid]
- expression of antioxidant transcription factor (Nrf2) [7]: increased in a dose-dependent manner
- activation of AMPK (expression of p-AMPK) (AMPK [8]): obviously activate the AMPK
- duration of the analgesic effect ([3]; rats): 72 h
- analgesic effect 1.5 hours after oral administration ([3]; rats): obvious analgesic effect
- expression of autophagy related protein (LC3B) [9]: also increased
- phosphorylation level of the AMPK (AMPK [5]): significantly up-regulate

Structure (SMILES): COc1cc(C(=O)O)c2c(n1)C(=O)C(=O)c1cc[nH]c1-2 [SP3103, 7-methoxy-4,5-dioxo-4,5-dihydro-1H-pyrrolo[2,3-f]quinone-9-carboxylic acid]
- duration of the analgesic effect ([3]; rats): 72 h
- analgesic effect 1.5 hours after oral administration ([3]; rats): obvious analgesic effect

Structure (SMILES): CC(C)Cc1ccc(C(C)C(=O)O)cc1 (stereo not drawn) [ibuprofen]
- analgesic effect 1.5 hours after each oral administration ([3]; 25 mg/kg once a day orally for 3 days, day 1/2/3, rats): obvious analgesic effect
- analgesic effect before administration ([3]; 25 mg/kg once a day orally, rats, data not shown): no analgesic effect
- analgesic effect on the fourth day without administration ([3]; after 25 mg/kg once a day orally for 3 days, rats): no analgesic effect
